Read-outs that look alike come from different tables or passages of the source.
How the values were obtained:
PTSD [1] = settings: average dose 2.4 mg; military veterans with PTSD taking or not taking antidepressant; cited from earlier work
PTSD [2] = assay: Example 1 case summaries 1-6: tizanidine as adjunctive treatment for PTSD, anxiety, depression, psychosis or impaired cognition; type: in vivo, human
Description: Treatment was begun with sertraline 100 mg per day for anxiety and nortriptyline 25 mg at bedtime for headaches. […] Treatment with tizanidine was started and the dose was increased to 8 mg at bedtime.
Tizanidine was started and titrated up to 4 mg at bedtime along with aripiprazole (15 mg at bedtime) and clonazepam (0.5 mg daily).
These medications included sertraline (250 mg daily), divalproex sodium (2500 mg daily), quetiapine (100 mg twice daily and 400 mg at bedtime), amitriptyline (25 mg at bedtime), and tramadol (50 mg as needed for severe headache). […] A trial of tizanidine was started and the dose was titrated up to 8 mg at bedtime.
Pharmacologic Treatment and Response: While on the psychiatry unit, they were treated with sertraline for PTSD and nortriptyline for headaches and depression. […] They were started on tizanidine 4 mg at bedtime.
After approximately one year, subject agreed to a trial of tizanidine as an addition to sertraline. […] They agreed to increase the dose to 4 mg at bedtime and follow-up in four weeks. […] An atypical antipsychotic medication, aripiprazole, was added to their medications.
Treatment with tizanidine 4 mg at bedtime was added to the existing sertraline.

PTSD [3] = assay: Example 2 case summaries 7-9: switching from once to twice-daily dosing of tizanidine
Description: They were continued on aripiprazole, quetiapine, sertraline, and trazodone. Treatment with tizanidine was started for the nightmares and poor sleep.
They were switched from tizanidine 8 mg at bedtime to tizanidine 6 mg in the morning and 8 mg at bedtime. […] They continued on the sertraline, divalproex, and trazodone for initial insomnia. The tizanidine was switched to 4 mg in the morning and 4 mg at bedtime.
Subject was started on tizanidine up to 8 mg at bedtime for nightmares. They also were issued a device to assist with memory problems. A rating scale for common cognitive problems was administered by speech pathology prior to issuing them a personal digital assistant as a memory assist device.
They continued to take sertraline and tizanidine. At a psychology evaluation session, subject completed two self-report instruments of PTSD and depressive symptoms to establish a baseline indication of symptom severity. […] Subject was then switched from tizanidine 8 mg at bedtime to 4 mg twice daily.
After approximately one year of being followed in the psychiatry clinic, they became more willing to try medication and agreed to a trial of tizanidine.

PTSD [4] = settings: Case 10
Text: Given the prior history of ADHD, methylphenidate was cautiously added to the venlafaxine. […] They were referred to a specialty inpatient program for PTSD. During the inpatient program, the antidepressant was switched from venlafaxine to duloxetine.

[5] = cited from earlier work
[6] = fraction of the potency of clonidine; cited from earlier work
[7] = Case 2, tizanidine 4 mg at bedtime with aripiprazole 15 mg and clonazepam 0.5 mg, after two months
[8] = Case 2, tizanidine 8 mg at bedtime, other medications stopped, two months later
[9] = Case 3, tizanidine 8 mg at bedtime, after four weeks
[10] = Case 4, tizanidine 4 mg at bedtime
[11] = Case 5, tizanidine 2 mg at bedtime added to sertraline, several weeks
[12] = Case 5, tizanidine 4 mg at bedtime with sertraline, four weeks
[13] = Case 5, tizanidine 4 mg at bedtime, aripiprazole added, eight weeks later
[14] = Case 5, tizanidine 8 mg at bedtime, not taking sertraline and aripiprazole, eight weeks
[15] = Case 5, tizanidine 8 mg at bedtime, primary care appointment one month later
[16] = Case 6, tizanidine 4 mg at bedtime added to sertraline, approximately four weeks
[17] = Case 7, switched from tizanidine 8 mg at bedtime to 6 mg in the morning and 8 mg at bedtime, two months later
[18] = Case 7, tizanidine 4 mg twice daily, one month after switch
[19] = Case 7, tizanidine 8 mg at bedtime, four weeks
[20] = Case 8, tizanidine 4 mg twice daily, two weeks after switch
[21] = Case 9, trial of tizanidine, two months later
[22] = tizanidine 4 mg twice daily with methylphenidate, after four weeks

Structure (SMILES): N=C(N)NC(=O)Cc1c(Cl)cccc1Cl [guanfacine]
- relieving signs or symptoms of PTSD compared to placebo (PTSD [1]): not effective compared to placebo

Structure (SMILES): Clc1ccc2nsnc2c1NC1=NCCN1 [tizanidine]
- daytime anxiety (PTSD [2]; Case 1, tizanidine 8 mg at bedtime, after two weeks): less daytime anxiety
- reduction in nightmares (PTSD [2]; Case 1, tizanidine 8 mg at bedtime, after two weeks, subject report): ~50%
- alcohol use (PTSD [2]; [7]): one to two
- mood and energy (PTSD [2]; [7]): somewhat better
- other signs and symptoms of Major Depression, PTSD, and Psychosis NOS (PTSD [2]; [7]): unchanged
- overall condition (PTSD [2]; [7]): mildly improved
- panic attacks (PTSD [2]; [7]): had not experienced any panic attacks
- overall condition (PTSD [2]; Case 2, tizanidine 8 mg at bedtime, other medications stopped by subject, two months later): markedly improved
- alcohol use (PTSD [2]; Case 2, tizanidine 8 mg at bedtime, other medications stopped, preceding two months): had not drunk any alcohol
- daytime anxiety (PTSD [2]; [8]): less anxious during the day
- energy (PTSD [2]; [8]): improved
- hallucinations (PTSD [2]; [8]): had stopped
- intrusive thoughts of combat or the Iraq war (PTSD [2]; [8]): less frequent
- nightmares (PTSD [2]; [8]): much less frequent
- panic attacks (PTSD [2]; [8]): able to leave their house without panic attacks
- sleep (PTSD [2]; [8]): improved
- combat-related nightmares (PTSD [2]; [9]): complete absence of combat-related nightmares
- concentration and attention during the day (PTSD [2]; [9]): easier to concentrate
- daytime anxiety (PTSD [2]; [9]): substantial decrease in daytime anxiety
- nightmares overall (PTSD [2]; [9]): substantial reduction in nightmares overall
- sleep (PTSD [2]; [9]): significantly improved
- tremor, at rest and with action (PTSD [2]; [9]): improved
- hallucinations (PTSD [2]; Case 3, tizanidine 8 mg at bedtime, after four weeks, quetiapine dose decreased by subject): greatly reduced
- irritability and anxiety during the day (PTSD [2]; [10]): less irritable and less anxious
- nightmares (PTSD [2]; [10]): reduced their nightmares
- quality of sleep (PTSD [2]; [10]): improved the quality of their sleep
- nightmares (PTSD [2]; Case 4, tizanidine 4 mg at bedtime, approximately three weeks after starting): somewhat improved
- nightmares (PTSD [2]; [11]): no change to nightmares
- side effects or other adverse effects (PTSD [2]; [11]): no side effects or other adverse effects
- nightmares frequency (PTSD [2]; [12]): 3-4 times per week
- overall condition (PTSD [2]; [12]): not doing well
- panic attacks frequency (PTSD [2]; [12]): 2-3 times per week
- alcohol use (PTSD [2]; [13]): one to two
- mood and energy level (PTSD [2]; [13]): an improvement in their mood and energy level
- overall improvement (PTSD [2]; [13]): limited improvement
- remainder of PTSD and depressive symptoms (PTSD [2]; [13]): unchanged
- panic attacks (PTSD [2]; Case 5, tizanidine 4 mg at bedtime, aripiprazole added, eight weeks later, for several weeks): free from panic attacks
- side-effects (PTSD [2]; Case 5, tizanidine 4 mg at bedtime, eight weeks later): no side-effects
- alcohol consumption (PTSD [2]; [14]): decreased to less than once per month
- anxiety and energy during the day (PTSD [2]; [14]): less anxious and more energetic
- nightmares (PTSD [2]; [14]): improved
- overall improvement (PTSD [2]; [14]): substantial improvement
- panic attacks (PTSD [2]; [14]): continued to be absent
- anxiety (PTSD [2]; [15]): less anxiety
- depression (PTSD [2]; [15]): improved depression
- hallucinations (PTSD [2]; [15]): denied having any hallucinations
- nightmares (PTSD [2]; [15]): decreased nightmares
- feeling rested the next day (PTSD [2]; [16]): more rested the next day
- night sweats (PTSD [2]; [16]): fewer night sweats
- nightmares (PTSD [2]; [16]): reduction in their nightmares
- overall sleep quality (PTSD [2]; [16]): improved
- sleep time (PTSD [2]; [16]): had not increased their sleep time
- daytime anxiety (PTSD [3]; [17]): greater reduction to their daytime anxiety
- nightmares and sleep quality (PTSD [3]; [17]): no change to the beneficial impact
- nightmares (PTSD [3]; Case 7, tizanidine 4 mg twice daily with sertraline, divalproex, trazodone, one month after switch): continued to have no nightmares
- daytime anxiety (PTSD [3]; [18]): no change to daytime anxiety
- daytime cognition (PTSD [3]; [18]): no change in daytime cognition
- desire to smoke cigarettes (PTSD [3]; [18]): definite reduction in their desire to smoke
- mood (PTSD [3]; [18]): no changes in mood
- sleep (PTSD [3]; [18]): continued to have restful sleep
- nightmares overall (PTSD [3]; Case 7, tizanidine 8 mg at bedtime with aripiprazole, quetiapine, sertraline, trazodone, four weeks): greatly reduced nightmares overall
- anxiety during the day (PTSD [3]; [19]): significantly less anxiety during the day
- combat-related nightmares (PTSD [3]; [19]): complete absence of combat-related nightmares
- hallucinations (PTSD [3]; [19]): fewer hallucinations
- tremor (PTSD [3]; [19]): improved tremor
- sleep (PTSD [3]; Case 8, switched from tizanidine 8 mg at bedtime to 4 mg twice daily, two weeks later): no change in sleep
- energy (new onset, gradually improving) (PTSD [3]; [20]): mild decrease in energy
- hypervigilance during the day (PTSD [3]; [20]): reduced hypervigilance during the day
- irritability during the day (PTSD [3]; [20]): less irritability during the day
- nightmares (PTSD [3]; [20]): eliminates nightmares
- feeling better the next day (PTSD [3]; Case 8, tizanidine 8 mg at bedtime with sertraline): significant improvement
- cognitive function (PTSD [3]; Case 8, tizanidine up to 8 mg at bedtime with sertraline, memory assist device also issued, following weeks): improved
- twice-daily compared to once-daily dosing (PTSD [3]; Case 9, tizanidine 4 mg twice daily versus 8 mg at bedtime, same total milligrams): clear superiority of twice-daily
- cognitive symptoms (PTSD [3]; [21]): unchanged
- headaches (PTSD [3]; [21]): much less intense
- mood and energy (PTSD [3]; [21]): improved
- sleep (PTSD [3]; [21]): better
- anxiety (PTSD [3]; Case 9, trial of tizanidine, two months later, still startled easily and hypervigilant): less anxiety
- nightmares (PTSD [4]; [22]): absence of nightmares
- overall helpfulness (PTSD [4]; [22]): extremely helpful
- sleep (PTSD [4]; [22]): greatly improved sleep
- daytime anxiety (PTSD [4]; when taking tizanidine 4 mg twice daily): less daytime anxiety
- peak serum levels ([5]; single 4 mg capsule): ~4.0 ng/mL
- peak serum levels ([5]; single 4 mg tablet): about 2.7 ng/ml
- potency in lowering blood pressure relative to clonidine [6]: one-tenth to one-fiftieth
